US20090041719A1, “Method for screening therapeutic agent for glomerular disorder” (priority 2006, published 2009)

How the values were obtained:
4F2hc [1] = assay: HAT heavy chain 4F2hc on large-monocyte fraction of LPS-stimulated human PBMC, peak value by FACScan (polyclonal antibody); format: cell-based
Procedure: (§1) In the same manner as in 1) to 5) of Experimental Example 1, to human peripheral blood mononuclear cells, the test compound (6-2) (final concentration: 10 nM) or the test compound (7-3) (final concentration: 100 nM) was added at the same time when LPS (final concentration: 80 μg/ml) was added, followed by 6-day culture. Further, in the same manner as above, using rabbit anti-human 4F2hc polyclonal antibodies (see Biol Pharm Bull 30:415-422, 2007) as a primary antibody, the peak value of HAT expressed on the fraction of large-macrophages (larger than monocyte macrophages) in human PBMC was measured by FACScan using a commercially available cell fix/cell membrane infiltration kit (trade name: BD Cytofix/Cytoperm™ Kit, catalog No. 554714, BD Biosciences).
(§2) As a control, the one with no test-compound addition was used, and as a rabbit anti-human rBAT (related to b^0,+-type amino acid transporter) polyclonal antibody, the one obtained by coupling a synthesized peptide composed of an amino-terminal of human rBAT (MAEDKSKRDSIEMSMKGC (SEQ ID NO: 2)) and a carboxyl-terminal of mouse b^0,+AT (BAT1) (CHLQMLEWPEKDPE (SEQ ID NO: 3)) to a carrier KLH (keyhole-limpet hemocyanin), and immunizing a rabbit with it.

rBAT = assay: HAT heavy chain rBAT on large-monocyte fraction of LPS-stimulated human PBMC, peak value by FACScan; format: cell-based
Procedure: as §1, §2

4F2hc [2] = assay: 4F2hc on large-cell fraction of LPS-stimulated THP-1, peak value by FACScan; format: cell-based, human
Procedure: The same procedures as in Experimental Example 2 were taken except the following conditions: human leukemia culture cell line THP-1 was used instead of the human peripheral blood mononuclear cells; the final addition concentration of the test compound (6-2) was set to 100 nM, and the final addition concentration of the test compound (7-3) was set to 1000 nM; and fetal bovine serum was used instead of the human AB serum. The peak value of HAT expressed on the fraction of large-cells in human leukemia culture cell strain THP-1, compared with those not stimulated with LPS, was measured. As a control, the one with no test-compound addition was used, and the peak value of HAT was measured by FACScan using a commercially available cell fix/cell membrane infiltration kit (trade name: BD Cytofix/Cytopem™ Kit, catalog No. 554714, BD Bioscience).

4F2hc [3] = assay: 4F2hc on large-cell fraction of interferon γ-stimulated THP-1, peak value by FACScan; format: cell-based, human
Procedure: The same procedures as in Experimental Example 2 were taken except the following conditions: human leukemia culture cell line THP-1 was used instead of the human peripheral blood mononuclear cells; the final addition concentration of the test compound (6-2) was set to 100 nM; fetal bovine serum was used instead of the human AB serum; and human recombinant interferon γ (PHP050, Serotec) (final concentration: 100 ng/ml) was used instead of LPS. Also, using rabbit anti-human 4F2hc polyclonal antibodies (see Biol Pharm Bull 30: 415-422, 2007) as the primary antibody, the peak value of HAT expressed on the fraction of large-cells in human leukemia culture cell strain THP-1, compared with those not stimulated with LPS, was measured. As a control, the one with no test-compound (DMSO alone) was used, and the rabbit anti-human rBAT polyclonal antibodies were obtained in the same manner as in Experimental Example 2.

FRP-1/CD98/4F2hc = assay: FACScan of FRP-1/CD98/4F2hc expression on macrophage fraction of LPS-stimulated human PBMC (monoclonal antibodies 4-5-1, 6-1-3, HBJ-127); format: cell-based
[4] = human PBMC + LPS, summary of Table 2
[5] = human PBMC + LPS 80 μg/ml, 6-day culture, test compound 10 nM

Structure (SMILES): O=C1CCC(F)(C(=O)OCc2ccccc2)O1 (stereo not shown) [Compound (6-2)]
- Change in HAT expressed on large-monocyte fraction of human PBMC (peak value by FACScan), 4F2hc (4F2hc [1]; human PBMC + LPS 80 μg/ml, 6-day culture, test compound 10 nM, solvent control 23): 10
- amount of 4F2hc in the heavy chain of HAT (in words) (4F2hc [1]; [4]): selectively decreased
- Change in HAT expressed on large-monocyte fraction of human PBMC (peak value by FACScan), rBAT (rBAT; human PBMC + LPS 80 μg/ml, 6-day culture, test compound 10 nM, solvent control 37): 40
- amount of rBAT (in words) (rBAT; [4]): without any influence
- Change in HAT expressed on large-cell fraction of THP-1 (peak value by FACScan), 4F2hc (4F2hc [2]; THP-1 + LPS 80 μg/ml, fetal bovine serum, test compound 100 nM, solvent control 12): 25
- amount of 4F2hc in the heavy chain of HAT (in words) (4F2hc [2]; THP-1 + LPS, summary of Table 3): remarkably changed
- Change in HAT expressed on large-cell fraction of THP-1 (peak value by FACScan), 4F2hc (4F2hc [3]; THP-1 + human recombinant interferon γ 100 ng/ml, test compound 100 nM, solvent control 16): 10
- amount of 4F2hc in the heavy chain of HAT (in words) (4F2hc [3]; THP-1 + interferon γ, summary of Table 4): selectively decreased
- expression of the FRP-1/CD98/4F2hc molecule lowered to (FRP-1/CD98/4F2hc; a different normal human PBMC, where expression was enhanced to 90% or more, not shown in Table): ≤ 5%
- Migration of FRP-1/CD98/4F2hc expression of macrophage fraction by FACScan (migration rate %), monoclonal antibody 4-5-1 (FRP-1) (FRP-1/CD98/4F2hc; [5]): 32.7%
- Migration of FRP-1/CD98/4F2hc expression of macrophage fraction by FACScan (migration rate %), monoclonal antibody 6-1-3 (FRP-1) (FRP-1/CD98/4F2hc; [5]): 29.8%
- Migration of FRP-1/CD98/4F2hc expression of macrophage fraction by FACScan (migration rate %), monoclonal antibody HBJ-127 (CD98) (FRP-1/CD98/4F2hc; [5]): 11.0%
- expression of FRP-1/CD98/4F2hc on macrophage fraction of human PBMC (in words) (FRP-1/CD98/4F2hc; stimulated and cultured with LPS, summary of Table 1): increased the expression
